In US20230123334A1, “AMINO LIPID COMPOUND, PREPARATION METHOD THEREFOR, AND APPLICATION THEREOF” (SHENZHEN SHENXIN BIOTECHNOLOGY CO., LTD., priority 2020, published 2023):

How the values were obtained:
[1] = system: HEK293 cells; test: Preliminary screening as DNA vectors, GFP transfection of HEK293 cells; format: cell-based; conditions: HEK293 cells; lipid/DOPE liposome with 75 ng plasmid DNA (psin-EGFP-IRES-Puro); number of cells expressing GFP divided by total number of nuclei (Hoechst)
Outline: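 First, amino lipid and DOPE were vortexed in sodium acetate buffer (pH 5.6) to form liposomes. Next, these were held with 75 ng EGFP plasmid at room temperature for 30 min. Finally, HEK293 cells were added, cultured at 37° C., Hoechst-stained, and GFP+/total nuclei scored by imaging.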

[2] = system: HEK293 cells; test: Preliminary screening as mRNA vectors, EGFP mRNA transfection of HEK293 cells; format: cell-based; conditions: HEK293 cells, 96-well plates, EGFP mRNA 50 ng per well; percentage of GFP fluorescent cells relative to total number of cells (Hoechst)
Outline: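 Screening format: EGFP mRNA transfection (50 ng/well) into HEK293 in 10% FBS-supplemented DMEM. Percent green fluorescent cells, normalised to Hoechst nuclear count, gave the value; Lipofectamine2000 was the reference transfectant.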

Row | Compound | Absolute DNA transfection efficiency in HEK293 cells [1] | Absolute mRNA transfection efficiency in HEK293 cells [2]
1 | CCCCCCCCCCCCCCCSc1nc(NCCN2CCCC2)nc(SCCCCCCCCCC)n1 [Compound S10S15D3] | 7.6% | 19.6%
2 | CCCCCCCCCCCSc1nc(NCCN2CCN(C)CC2)nc(SCCCCCCCCC)n1 [Compound S9S11D5] | 11.4% | 48.6%
3 | CCCCCCCCCCCCSc1nc(NCCN2CCCCC2)nc(SCCCCCCCCCCC)n1 [Compound S11S12D4] | 5.6% | 0.4%
4 | CCCCCCCCCCCCCNc1nc(NCCCCCCCCC)nc(NCCN2CCCCC2)n1 [Compound N9N13D4] | 0.0% | 0.5%
5 | CCCCCCCCCCCCCCCNc1nc(NCCCCCCCC)nc(NCCN(CC)CC)n1 [Compound N8N15D7] | 0.0% | 0.0%
6 | CCCCCCCCCCCCCCCCCCNc1nc(NCCCCCCCCCCCCCCC)nc(NCCCN(C)C)n1 [Compound N15N18D6] | 0.6% | 8.6%
7 | CCCCCCCCCCCCCCCCCCSc1nc(NCCN(CC)CC)nc(SCCCCCCCC)n1 [Compound S8S18D7] | 9.2% | 3.8%
8 | CCCCCCCCCCCNc1nc(NCCCCCC)nc(NCCCN(C)C)n1 [Compound N6N11D6] | 0.2% | 0.0%
9 | CCCCCCCCCCCCNc1nc(NCCCCCCCC)nc(NCCCN(C)C)n1 [Compound N8N12D6] | 0.4% | 0.1%
10 | CCCCCCCCCCCCN(CCCCCCCCCCCC)c1nc(NCCN2CCCC2)nc(N(CCCCCCCCCCCC)CCCCCCCCCCCC)n1 [2N12^2N12D3] | 1.3% | 0.0%
11 | CCCCCCCCCCCCCCCCCCNc1nc(NCCCCCCCCCCCCCCC)nc(NCCN2CCCC2)n1 [Compound N15N18D3] | 3.0% | 8.6%
12 | CCCCCCCCCCCCCCCNc1nc(NCCCCCCCCCCCCC)nc(NCC2CCN(C)CC2)n1 [Compound N13N15D10] | 0.0% | 0.4%
13 | CCCCCCCCCCCCSc1nc(NCCCN2CCOCC2)nc(SCCCCCCCCCCCC)n1 [Compound S12S12D8] | 3.4% | 3.8%
14 | CCCCCCCCCCCCCCCNc1nc(NCCCCCCCCCCCCCCC)nc(NCCCN(C)C)n1 [Compound N15N15D6] | 1.5% | 0.0%
15 | CCCCCCCCCCCCCCCCCCNc1nc(NCCCN2CCN(C)CC2)nc(N(CCCCCCCCCCCC)CCCCCCCCCCCC)n1 [N18^2N12D9] | 0.6% | 0.6%
16 | CCCCCCCCCCCCCCCCCCNc1nc(NCCCCCCCCC)nc(NCCN2CCCC2)n1 [Compound N9N18D3] | 2.0% | 4.7%
17 | CCCCCCNc1nc(NCCCCCC)nc(NCCN2CCCCC2)n1 [Compound N6N6D4] | 0.0% | 0.1%
18 | CCCCCCCCCCCCCCSc1nc(NCCN2CCN(C)CC2)nc(SCCCCCCCCCCC)n1 [Compound S11S14D5] | 5.1% | 9.1%
19 | CCCCCCCCCCCCCCCNc1nc(NCCCCCCCCCCC)nc(NCCN2CCOCC2)n1 [Compound N11N15D2] | 0.3% | 0.7%
20 | CCCCCCCCCCCCCCCCCCSc1nc(NCC2CCN(C)CC2)nc(SCCCCCCCCCCCCCC)n1 [Compound S14S18D10] | 1.7% | 1.5%
21 | CCCCCCCCCCCCCCCCCCNc1nc(NCCCCCCC)nc(NCCCN2CCOCC2)n1 [Compound N7N18D8] | 0.2% | 0.2%
22 | CCCCCCCNc1nc(NCCCCCC)nc(NCCN2CCCC2)n1 [Compound N6N7D3] | 0.4% | 0.0%
23 | CCCCCCCCCCCCCCCCCCSc1nc(NCC2CCN(C)CC2)nc(SCCCCCCCCCC)n1 [Compound S10S18D10] | 43.1% | 54.6%
24 | CCCCCCCCCCCCCCCCCCSc1nc(NCCN(C)C)nc(SCCCCCCCCCCCCCCCC)n1 [Compound S16S18D1] | 1.2% | 2.1%

Row | Compound | Absolute DNA transfection efficiency in HEK293 cells [1] | Absolute mRNA transfection efficiency in HEK293 cells [2]
25 | CCCCCCCCCCCCCCCCCCNc1nc(NCCCCCCCC)nc(NCCN2CCN(C)CC2)n1 [Compound N8N18D5] | 1.9% | 0.9%
26 | CCCCCCCCCCCCCCCNc1nc(NCCCCCCCCCCCCCCC)nc(NCCCN2CCOCC2)n1 [Compound N15N15D8] | 0.0% | 0.0%
27 | CCCCCCCCCCCCCCCCNc1nc(NCCCCCCCCCCCCC)nc(NCCN2CCOCC2)n1 [Compound N13N16D2] | 0.0% | 1.4%
28 | CCCCCCCCCCCCCCCNc1nc(NCCCCCC)nc(NCCN(C)C)n1 [Compound N6N15D1] | 0.0% | 0.0%
29 | CCCCCCCCCCCNc1nc(NCCCCCCCCCCC)nc(NCCN2CCCC2)n1 [Compound N11N11D3] | 1.8% | 1.4%
30 | CCCCCCCCCCCNc1nc(NCCCCCCC)nc(NCCCN(C)C)n1 [Compound N7N11D6] | 1.1% | 1.5%
31 | CCCCCCCCCCCCCNc1nc(NCCCCCCCCCCCC)nc(NCCCN(C)C)n1 [Compound N12N13D6] | 0.5% | 1.0%
32 | CCCCCCCCCCCCCCCCSc1nc(NCCN2CCOCC2)nc(SCCCCCCCCCC)n1 [Compound S10S16D2] | 0.1% | 0.3%
33 | CCCCCCCCCCCCCNc1nc(NCCCCCCCCCCCCC)nc(NCCN2CCCC2)n1 [Compound N13N13D3] | 0.7% | 3.5%
34 | CCCCCCCCCCCCCCCCNc1nc(NCCCCCCCCCCCC)nc(NCCN2CCN(C)CC2)n1 [Compound N12N16D5] | 0.1% | 1.4%
35 | CCCCCCCCCCCCCCCCNc1nc(NCCCCCCCCCCCC)nc(NCCN2CCCCC2)n1 [Compound N12N16D4] | 1.2% | 0.7%
36 | CCCCCCCCCCCCCNc1nc(NCCCCCCCCCCCCC)nc(NCC2CCN(C)CC2)n1 [Compound N13N13D10] | 0.3% | 2.9%
37 | CCCCCCCCCCCCCCCCCCSc1nc(NCCN2CCOCC2)nc(SCCCCCCCCC)n1 [Compound S9S18D2] | 2.3% | 0.0%
38 | CCCCCCCCCCCCCNc1nc(NCCCCCCCCC)nc(NCCCN2CCOCC2)n1 [Compound N9N13D8] | 0.0% | 0.0%
39 | CCCCCCCCCCCCCCCCCCNc1nc(NCCCCCCCCCCCCCCCC)nc(NCC2CCN(C)CC2)n1 [Compound N16N18D10] | 3.0% | 1.8%
40 | CCCCCCCCCCCCCCCCCCNc1nc(NCCN(CC)CC)nc(N(CCCCCCCCCCCC)CCCCCCCCCCCC)n1 [N18^2N12D7] | 0.2% | 0.7%
41 | CCCCCCCCCCCCCCCSc1nc(NCCN2CCCCC2)nc(SCCCCCCCCCCCC)n1 [Compound S12S15D4] | 3.8% | 3.3%
42 | CCCCCCCCCCCCCCCCNc1nc(NCCCCCCCCCCCCCCC)nc(NCCN(C)C)n1 [Compound N15N16D1] | 1.8% | 3.6%
43 | CCCCCCCCCCCCCCCNc1nc(NCCCCCCCCCCCC)nc(NCCN(CC)CC)n1 [Compound N12N15D7] | 0.8% | 1.4%
44 | CCCCCCCCCCCCCCCCCCSc1nc(NCCN(CC)CC)nc(SCCCCCCCCCCCCCCCCCC)n1 [Compound S18S18D7] | 0.2% | 0.0%
45 | CCCCCCCCCCCCCCSc1nc(NCCCN2CCOCC2)nc(SCCCCCCCCCC)n1 [Compound S10S14D8] | 18.9% | 7.5%
46 | CCCCCCCCCCCCCCCCCCSc1nc(NCCCN(C)C)nc(SCCCCCCCCCCCCCCCC)n1 [Compound S16S18D6] | 0.2% | 1.8%
47 | CCCCCCCCCCCCN(CCCCCCCCCCCC)c1nc(NCCCCCCCC)nc(NCCCN2CCOCC2)n1 [N8^2N12D8] | 0.2% | 2.0%
